# Reference: publication PMC11350758, “Development of Xanthoangelol-Derived Compounds with Membrane-Disrupting Effects against Gram-Positive Bacteria” (Antibiotics, 2024)
# Legend:
# red blood cells = assay: Hemolysis assay; type: cell-based, Sheep; settings: concentration required to lyse 50% of red blood cells; 37 °C, 1 h
# Experimental: (§1) All target derivatives were assessed for their in vitro antibacterial activities using a broth microdilution assay to test their minimum inhibitory concentrations (MICs) against six Gram-positive strains (S. aureus ATCC31007, S. aureus ATCC25923, S. aureus ATCC43300, E. faecalis ATCC29212, B. subtilis ATCC9372, and S. epidermidis ATCC12228) and four Gram-negative strains (A. baumannii ATCC19606, K. pneumonia ATCC10031, E. coli ATCC25922, and P. aeruginosa ATCC27853). These compounds were also evaluated for their hemolytic activities and membrane selectivity by determining their HC50 (the concentration required to lyse 50% of red blood cells) and SI (HC50/MICs) values, respectively, and vancomycin was used as the positive drug.
# To further detect the hemolytic toxicity and therapeutic potential of these derivatives, we proceeded to examine the hemolytic activities and membrane selectivity of these derivatives. The HC50 value was defined as the concentration needed for a compound to lyse 50% of red blood cells, and it is often used to evaluate the hemolytic toxicity to eukaryotic cells. […] The selectivity index (SI) was calculated by HC50/MICs of S. aureus ATCC43300 and was used to assess the potency and safety of the compounds. […] Thus, compound 9h was selected as a representative molecule for the in-depth in vitro and in vivo studies.
# Sheep blood was used to isolate red blood cells (RBCs), which were then resuspended in 1× PBS (5%). The compounds were dissolved in PBS to give an initial concentration of 5.12 mg/mL, compound solution (100 μL) was added to the first well of a 96-well plate, two-fold serial dilutions of compounds were prepared in 96-well plates, and then 150 μL of 5% RBC suspension was added to each well. This was followed by incubation at 37 °C for 1 h. After incubation, the plate was centrifuged (3500 rpm, 5 min), and 100 μL of supernatant solution from each well was carefully pipetted into a new plate. The absorbance values were measured at 540 nm. Erythrocyte hemolysis rate = (Absorbancecompound – Absorbance negative control)/(Absorbance1% Triton X-100 − Absorbance negative control) × 100%. All biological experiments were repeated three times.
# [1] = test system: Bacillus subtilis ATCC9372, penicillin-susceptible strain; assay: MIC, broth microdilution; type: cell-based; settings: Bacillus subtilis ATCC9372; for MIC: read-out: MIC B. s. 9372
# Experimental: as §1
# (§2) MICs of the derivatives were determined by the micro broth dilution method according to the American Clinical and Laboratory Standards Institute (CLSI) standards. Briefly, 2-fold serial dilutions of target compounds were prepared in 96-well plates containing TSB broth. An equal volume of bacterial suspension (10^6 CFU/mL) was then pipetted into each well, and the mixture was incubated at 37 °C for 24 h. […] All biological experiments were repeated three times.
# [2] = test system: Pseudomonas aeruginosa ATCC27853, penicillin-susceptible strain; assay: MIC, broth microdilution; type: cell-based; settings: Pseudomonas aeruginosa ATCC27853; for MIC: read-out: MIC P. a. 27853
# Experimental: as §1, §2
# [3] = test system: Escherichia coli ATCC25922, penicillin-susceptible strain; assay: MIC, broth microdilution; type: cell-based; settings: Escherichia coli ATCC25922; for MIC: read-out: MIC E. c. 25922
# Experimental: as §1, §2
# [4] = test system: Staphylococcus aureus ATCC31007, penicillin-resistant strain; assay: MIC, broth microdilution; type: cell-based; settings: Staphylococcus aureus ATCC31007; for MIC: read-out: MIC S. a. 31007
# Experimental: as §1, §2
# [5] = test system: Staphylococcus aureus ATCC25923, erythromycin-susceptible strain; assay: MIC, broth microdilution; type: cell-based; settings: Staphylococcus aureus ATCC25923; for MIC: read-out: MIC S. a. 25923
# Experimental: as §1, §2
# [6] = test system: Staphylococcus epidermidis ATCC12228, erythromycin-susceptible strain; assay: MIC, broth microdilution; type: cell-based; settings: Staphylococcus epidermidis ATCC12228; for MIC: read-out: MIC S. e. 12228
# Experimental: as §1, §2
# [7] = test system: Enterococcus faecalis ATCC29212, vancomycin-susceptible strain; assay: MIC, broth microdilution; type: cell-based; settings: Enterococcus faecalis ATCC29212; for MIC: read-out: MIC E. f. 29212
# Experimental: as §1, §2
# [8] = test system: Acinetobacter baumannii ATCC19606; assay: MIC, broth microdilution; type: cell-based; settings: Acinetobacter baumannii ATCC19606; for MIC: read-out: MIC A. b. 19606
# Experimental: as §1, §2
# [9] = test system: Klebsiella pneumonia ATCC10031; assay: MIC, broth microdilution; type: cell-based; settings: Klebsiella pneumonia ATCC10031; for MIC: Klebsiella pneumoniae, read-out: MIC K. p. 10031
# Experimental: as §1, §2
# [10] = test system: Enterococcus faecalis ATCC51299, vancomycin-resistant strain; assay: MIC, broth microdilution; type: cell-based; settings: Enterococcus faecalis ATCC51299, vancomycin-resistant; for MIC: read-out: MIC E. f. 51299
# Experimental: as §2
# [11] = test system: Enterococcus faecium ATCC51559, vancomycin-resistant strain; assay: MIC, broth microdilution; type: cell-based; settings: Enterococcus faecium ATCC51559, vancomycin-resistant; for MIC: read-out: MIC E. f. 51559
# Experimental: as §2
# [12] = test system: Staphylococcus aureus ATCC43300, methicillin-resistant strain; assay: microbe, parasite or virus in culture; type: cell-based; settings: Staphylococcus aureus ATCC43300 (MRSA); for MIC: ATCC 43300 / MRSA, read-out: MIC S. a 43300
# Experimental: as §1, §2
Molecule,HC50 (red blood cells) [µg/mL],MIC [1] [µg/mL],MIC [2] [µg/mL],MIC [3] [µg/mL],MIC [4] [µg/mL],MIC [5] [µg/mL],MIC [6] [µg/mL],MIC [7] [µg/mL],MIC [8] [µg/mL],MIC [9] [µg/mL],MIC [10] [µg/mL],MIC [11] [µg/mL],MIC [12] [µg/mL],further results
"CCNCCCOc1c(C(C)=O)ccc2c1C=CC(C)(CCC=C(C)C)O2 (stereo not shown) [Compound 5b, 1-(5-(3-(Ethylamino)propoxy)-2-methyl-2-(4-methylpent-3-en-1-yl)-2H-chromen-6-yl)ethan-1-one]",118.4,8,> 128,32,16,16,8,8,16,16,32,32,16,
"CC(=O)c1ccc2c(c1OCCCN1CC(C)OC(C)C1)C=CC(C)(CCC=C(C)C)O2 (stereo not shown) [Compound 5d, 1-(5-(3-(2,6-Dimethylmorpholino)propoxy)-2-methyl-2-(4-methylpent-3-en-1-yl)-2H-chromen-6-yl)ethan-1-one]",746.5,> 128,> 128,> 128,> 128,> 128,> 128,> 128,128,128,> 128,> 128,> 128,
"CC(=O)c1ccc2c(c1OCCCN1CCN(C(C)=O)CC1)C=CC(C)(CCC=C(C)C)O2 (stereo not shown) [Compound 5e, 1-(4-(3-((6-Acetyl-2-methyl-2-(4-methylpent-3-en-1-yl)-2H-chromen-5-yl)oxy)propyl)piperazin-1-yl)ethan-1-one]",62.3,64,> 128,> 128,128,128,64,32,128,> 128,128,128,128,
"CC(=O)c1ccc2c(c1OCCCNCCN(C)C)C=CC(C)(CCC=C(C)C)O2 (stereo not shown) [Compound 5f, 1-(5-(3-((2-(Dimethylamino)ethyl)amino)propoxy)-2-methyl-2-(4-methylpent-3-en-1-yl)-2H-chromen-6-yl)ethan-1-one]",127.7,8,32,8,16,16,8,8,8,8,32,32,8,
"CC(=O)c1c(OCCC[n+]2ccccc2)c2c(c3c1OC(C)(CCC=C(C)C)C=C3)OC(C)(CCC=C(C)C)C=C2 (stereo not shown) [Compound 9b, 1-(3-((6-Acetyl-2,8-dimethyl-2,8-bis(4-methylpent-3-en-1-yl)-2H,8H-pyrano[2,3-f]chromen-5-yl)oxy)propyl)pyridin-1-ium]",26.6,2,> 128,128,4,2,32,2,32,32,4,4,1,
"CNCCN(C)CCCOc1c2c(c3c(c1C(C)=O)OC(C)(CCC=C(C)C)C=C3)OC(C)(CCC=C(C)C)C=C2 (stereo not shown) [Compound 9f, 1-(2,8-Dimethyl-5-(3-(methyl(2-(methylamino)ethyl)amino)propoxy)-2,8-bis(4-methylpent-3-en-1-yl)-2H,8H-pyrano[2,3-f]chromen-6-yl)ethan-1-one]",40.3,8,> 128,128,4,4,8,8,64,16,4,8,4,
"CCN(CC)CCCNCCCOc1c2c(c3c(c1C(C)=O)OC(C)(CCC=C(C)C)C=C3)OC(C)(CCC=C(C)C)C=C2 (stereo not shown) [Compound 9g, 1-(5-(3-((3-(Diethylamino)propyl)amino)propoxy)-2,8-dimethyl-2,8-bis(4-methylpent-3-en-1-yl)-2H,8H-pyrano[2,3-f]chromen-6-yl)ethan-1-one]",34.9,2,32,4,4,2,1,1,4,8,32,32,4,
"colistin [Cos, reference compound]",,,,,,,,,,,,,,MIC B. s. 9372 [1]: 16 µg/mL; MIC P. a. 27853 [2]: 0.5 µg/mL; MIC E. c. 25922 [3]: 0.5 µg/mL; MIC S. a. 31007 [4]: 128 µg/mL; MIC S. a. 25923 [5]: 128 µg/mL; MIC S. e. 12228 [6]: 64 µg/mL; MIC E. f. 29212 [7]: 128 µg/mL; MIC A. b. 19606 [8]: 1 µg/mL; MIC K. p. 10031 [9]: 1 µg/mL; MIC E. f. 51299 [10]: >128 µg/mL; MIC E. f. 51559 [11]: >128 µg/mL; MIC S. a 43300 [12]: 128 µg/mL
